ChEMBL document CHEMBL4219094, “Synthesis and evaluation of substituted 4-arylimino-3-hydroxybutanoic acids as potential HIV-1 integrase inhibitors” (Bioorg Med Chem Lett, 2018)

Tests used:
[1] = Cytotoxicity against HEK293 cells after 48 hrs by resazurin dye-based fluorescence assay; assay type: cell-based; settings: human
[2] = molecular target: Human immunodeficiency virus type 1 integrase (Human immunodeficiency virus 1, UniProt Q7ZJM1); assay: Inhibition of HIV-1 subtype C integrase in presence of biotinylated DNA by colorimetric analysis
Sequence of Human immunodeficiency virus type 1 integrase (Q7ZJM1 whole entry): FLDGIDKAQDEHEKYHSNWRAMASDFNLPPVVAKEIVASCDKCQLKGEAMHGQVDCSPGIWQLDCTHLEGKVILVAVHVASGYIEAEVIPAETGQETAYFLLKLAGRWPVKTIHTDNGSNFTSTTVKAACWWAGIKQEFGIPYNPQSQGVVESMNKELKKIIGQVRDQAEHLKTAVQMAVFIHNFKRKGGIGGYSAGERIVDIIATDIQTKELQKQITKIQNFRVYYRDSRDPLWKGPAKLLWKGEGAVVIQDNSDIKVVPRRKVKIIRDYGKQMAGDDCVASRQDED

HEK293 = assay: Cytotoxicity against HEK293 cells at 100 uM after 48 hrs by resorufin dye-based fluorescence assay relative to control; assay type: cell-based; settings: human, hek293, 48 h

Compound	CC50 at 48 h [1] [µM]	IC50 [2] [µM]	Activity (HEK293)
O=C(O)CC(O)/C=N/c1cc(Cl)cc(Cl)c1O (configuration not stated)	101	> 100	
O=C(O)CC(O)/C=N/c1ccc(O)c(O)c1 (configuration not stated)		38.7	Non-Toxic
O=C(O)CC(O)/C=N/c1cc(Cl)cc(Br)c1O (configuration not stated)	109	> 100	
O=C(O)CC(O)/C=N/c1ccccc1O (configuration not stated)		> 100	Non-Toxic
O=C(O)CC(O)/C=N/c1ccc(O)c(O)c1O (configuration not stated)		3.52	Non-Toxic
O=C(O)CC(O)/C=N/c1cc([N+](=O)[O-])ccc1O (configuration not stated)		65.1	Non-Toxic
O=C(O)CC(O)/C=N/c1cccc(O)c1O (configuration not stated)		53.2	Non-Toxic
O=C(O)CC(O)/C=N/c1cc(Br)cc(Br)c1O (configuration not stated)	104	26.4	
CC[C@H]1CN2CCc3cc(OC)c(OC)cc3[C@@H]2C[C@@H]1C[C@H]1NCCc2cc(OC)c(OC)cc21 [EMETINE]	0.071		
